Results on two compounds are retold here after US12522827B2 (priority 2021, dated 2026).

Like-named read-outs stand apart in the source and are kept apart here.

Test [1] concerns PR8. As to the kind of experiment: microbe, parasite or virus in culture. The format is cell-based, Influenza A/PR/8/34 (PR8) H1N1 virus.
Test [2] relates to A/WSN/33 (H1N1) virus with NA H274Y resistance mutation. The format is cell-based, Influenza A/WSN/33 (H1N1).

As to TACTtactgacaGCC [LNA9], the values for the IC50 in test [1] (read-out: IC50 after serial passages) and in test [1] (read-out: IC50 at start of passaging) were 0.016 nM and 0.018 nM, respectively. Also, in test [2], the potency and efficacy result was “picomolar activity”.
For `CCOC(=O)C1=C[C@@H](OC(CC)CC)[C@H](NC(C)=O)[C@@H](N)C1` [Oseltamivir], the “increase of IC50” value in test [1] turned out to be 1000 fold. For the same compound, the IC50 came to 50000 nM in test [1] (Influenza A virus, PR8, read-out: IC50 after serial passages); 41 nM in test [1] (Influenza A virus, PR8, read-out: starting IC50); 53000 nM in test [2].

Usually IC50 stands for the point on the concentration scale where inhibition reaches its midpoint.
